Results published in the NIST ThermoML archive (doi:10.1016/j.jct.2012.09.003).
Numbers after ± are expanded uncertainties.

Key:
[1] = 298.15 K, 101.33 kPa, Liquid; for viscosity: Capillary tube (Ostwald / Ubbelohde) method; for speed of sound: Linear variable-path acoustic interferometer; for mass density: Vibrating tube method
[2] = cn = amount concentration of the nth substance listed, in mol/dm3; conditions: 298.15 K, 101 kPa, Liquid; for viscosity: Capillary tube (Ostwald / Ubbelohde) method; for speed of sound: Linear variable-path acoustic interferometer; for mass density: Vibrating tube method

For `CC(=O)N(C)C` [N,N-dimethylethanamide], which viscosity [1] is on record?
The viscosity was 0.923 ± 0.01 mPa·s.

What about the speed of sound [1] of the same compound?
Its speed of sound is 1458.5 ± 2 m/s.

What about the mass density [1] of the same compound?
The mass density was 936.8 ± 0.23 kg/m3.

For `C[S+](C)[O-]` [dimethyl sulfoxide], which viscosity [1] is on record?
The viscosity was 1.946 ± 0.017 mPa·s.

What about the speed of sound [1] of the same compound?
Its speed of sound is 1490.8 ± 2.1 m/s.

What about the mass density [1] of the same compound?
Its mass density is 1096.02 ± 0.31 kg/m3.

Which viscosity [1] does the source give for `CN(C)C=O` [dimethylformamide] here?
Its viscosity is 0.794 ± 0.009 mPa·s.

And the speed of sound [1]?
The speed of sound was 1451.7 ± 2 m/s.

What about the mass density [1] of the same compound?
The mass density was 944.5 ± 0.23 kg/m3.

For `CCCC[P+](CCCC)(CCCC)CCCC.F[B-](F)(F)F` [tetrabutylphosphonium tetrafluoroborate] + CC(=O)N(C)C, which viscosity ([2]; c1 = 0.0053) is on record?
Its viscosity is 0.93 ± 0.01 mPa·s.

What about the viscosity ([2]; c1 = 0.0215) of the same compound?
Its viscosity is 0.949 ± 0.01 mPa·s.

And the viscosity ([2]; c1 = 0.0377)?
Its viscosity is 0.968 ± 0.01 mPa·s.

What about the viscosity ([2]; c1 = 0.0541) of the same compound?
The viscosity was 0.987 ± 0.01 mPa·s.

And the viscosity ([2]; c1 = 0.0705)?
The viscosity was 1.007 ± 0.01 mPa·s.

What about the viscosity ([2]; c1 = 0.0871) of the same compound?
Its viscosity is 1.028 ± 0.01 mPa·s.

What about the speed of sound ([2]; c1 = 0.0053) of the same compound?
The speed of sound was 1461.8 ± 2.1 m/s.

And the speed of sound ([2]; c1 = 0.0215)?
Its speed of sound is 1473.5 ± 2.1 m/s.

What about the speed of sound ([2]; c1 = 0.0377) of the same compound?
Its speed of sound is 1486.9 ± 2.1 m/s.

And the speed of sound ([2]; c1 = 0.0541)?
Its speed of sound is 1501.6 ± 2.1 m/s.

And the speed of sound ([2]; c1 = 0.0705)?
Its speed of sound is 1517.8 ± 2.1 m/s.

And the speed of sound ([2]; c1 = 0.0871)?
The speed of sound was 1536.3 ± 2.1 m/s.

And the mass density ([2]; c1 = 0.0053)?
The mass density was 937.22 ± 0.24 kg/m3.

What about the mass density ([2]; c1 = 0.0215) of the same compound?
The mass density was 938.69 ± 0.24 kg/m3.

What about the mass density ([2]; c1 = 0.0377) of the same compound?
Its mass density is 940.34 ± 0.24 kg/m3.

What about the mass density ([2]; c1 = 0.0541) of the same compound?
The mass density was 942.13 ± 0.24 kg/m3.

And the mass density ([2]; c1 = 0.0705)?
The mass density was 944.01 ± 0.24 kg/m3.

And the mass density ([2]; c1 = 0.0871)?
Its mass density is 945.94 ± 0.24 kg/m3.

What does the source list for `CCCC[P+](CCCC)(CCCC)CCCC.F[B-](F)(F)F` [tetrabutylphosphonium tetrafluoroborate] + CN(C)C=O?
viscosity ([2]; c1 = 0.0053): 0.802 ± 0.009 mPa·s; viscosity ([2]; c1 = 0.0213): 0.82 ± 0.009 mPa·s; viscosity ([2]; c1 = 0.0374): 0.837 ± 0.009 mPa·s; viscosity ([2]; c1 = 0.0536): 0.854 ± 0.009 mPa·s; viscosity ([2]; c1 = 0.0699): 0.871 ± 0.01 mPa·s; viscosity ([2]; c1 = 0.0729): 0.889 ± 0.01 mPa·s; speed of sound ([2]; c1 = 0.0053): 1455.6 ± 2.1 m/s; speed of sound ([2]; c1 = 0.0213): 1468.7 ± 2.1 m/s; speed of sound ([2]; c1 = 0.0374): 1483.2 ± 2.1 m/s; speed of sound ([2]; c1 = 0.0536): 1498.6 ± 2.1 m/s; speed of sound ([2]; c1 = 0.0699): 1515.4 ± 2.1 m/s; speed of sound ([2]; c1 = 0.0863): 1533.8 ± 2.1 m/s; mass density ([2]; c1 = 0.0053): 944.98 ± 0.24 kg/m3; mass density ([2]; c1 = 0.0213): 946.61 ± 0.24 kg/m3; mass density ([2]; c1 = 0.0374): 948.4 ± 0.2 kg/m3; mass density ([2]; c1 = 0.0536): 950.34 ± 0.24 kg/m3; mass density ([2]; c1 = 0.0699): 952.4 ± 0.2 kg/m3; mass density ([2]; c1 = 0.0863): 954.5 ± 0.2 kg/m3

For `CCCC[P+](CCCC)(CCCC)CCCC.F[B-](F)(F)F` [tetrabutylphosphonium tetrafluoroborate] + C[S+](C)[O-], which viscosity ([2]; c1 = 0.0046) is on record?
The viscosity was 1.952 ± 0.017 mPa·s.

And the viscosity ([2]; c1 = 0.0184)?
The viscosity was 1.982 ± 0.018 mPa·s.

What about the viscosity ([2]; c1 = 0.0323) of the same compound?
The viscosity was 2.015 ± 0.018 mPa·s.

What about the viscosity ([2]; c1 = 0.0463) of the same compound?
Its viscosity is 2.049 ± 0.018 mPa·s.

And the viscosity ([2]; c1 = 0.0604)?
The viscosity was 2.085 ± 0.018 mPa·s.

What about the viscosity ([2]; c1 = 0.0746) of the same compound?
The viscosity was 2.12 ± 0.019 mPa·s.

What about the speed of sound ([2]; c1 = 0.0046) of the same compound?
The speed of sound was 1492.7 ± 2.1 m/s.

And the speed of sound ([2]; c1 = 0.0184)?
The speed of sound was 1501.5 ± 2.1 m/s.

And the speed of sound ([2]; c1 = 0.0323)?
The speed of sound was 1513.7 ± 2.1 m/s.

What about the speed of sound ([2]; c1 = 0.0463) of the same compound?
Its speed of sound is 1527.9 ± 2.1 m/s.

What about the speed of sound ([2]; c1 = 0.0604) of the same compound?
Its speed of sound is 1544.5 ± 2.1 m/s.

And the speed of sound ([2]; c1 = 0.0746)?
The speed of sound was 1564.6 ± 2.2 m/s.

What about the mass density ([2]; c1 = 0.0046) of the same compound?
Its mass density is 1096.05 ± 0.31 kg/m3.

What about the mass density ([2]; c1 = 0.0184) of the same compound?
Its mass density is 1096.4 ± 0.3 kg/m3.

And the mass density ([2]; c1 = 0.0323)?
The mass density was 1097.02 ± 0.31 kg/m3.

And the mass density ([2]; c1 = 0.0463)?
The mass density was 1097.84 ± 0.31 kg/m3.

What about the mass density ([2]; c1 = 0.0604) of the same compound?
Its mass density is 1098.83 ± 0.32 kg/m3.

What about the mass density ([2]; c1 = 0.0746) of the same compound?
Its mass density is 1099.98 ± 0.32 kg/m3.
